The source of these data is ChEMBL document CHEMBL4425172, “Chemical synthesis, pharmacological evaluation and in silico analysis of new 2,3,3a,4,5,6-hexahydrocyclopenta[c]pyrazole derivatives as potential anti-mitotic agents” (Bioorg Med Chem Lett, 2016).

Molecules are shown by their SMILES. The source made the active and inactive calls. No cut-off for these calls is given here.

One experiment deals with T47D. The experiment is described as follows: Antiproliferative activity against human T47D cells assessed as reduction in cell viability measured after 72 hrs by MTS assay. It is filed as functional, cell-based. For orientation: Tetrazolium dyes change colour on reduction, which living cells bring about.
For a further experiment, the system named is MDA-MB-231. As to the kind of experiment: Antiproliferative activity against human MDA-MB-231 cells assessed as reduction in cell viability measured after 72 hrs by MTS assay. In kind it is functional, cell-based.
Another experiment has as its system MDA-MB-468. As to the kind of experiment: Antiproliferative activity against human MDA-MB-468 cells assessed as reduction in cell viability measured after 72 hrs by MTS assay. It is filed as functional, cell-based.
The subject of another experiment is MCF7. The experiment is described as follows: Antiproliferative activity against human MCF7 cells assessed as reduction in cell viability measured after 72 hrs by MTS assay. In kind it is functional, cell-based.
In another experiment the test system is A549. The experiment is described as follows: Antiproliferative activity against human A549 cells assessed as reduction in cell viability measured after 72 hrs by MTS assay. In kind it is functional, cell-based.
The species named for experiment [1] is Capra hircus. As to the kind of experiment: Binding affinity to goat tubulin assessed as increase in tubulin-colchicine fluorescence preincubated for 30 mins followed by colchicine addition measured after 60 mins by tryptophan fluorescence quenching assay.
Experiment [2] in a line: Binding affinity to goat tubulin by double reciprocal plot analysis. Set-up: species or system Capra hircus.
Experiment [3] is filed under the species Capra hircus. The experiment is described as follows: Binding affinity to goat tubulin by tryptophan fluorescence quenching assay.
The mark [4] stands for this setting: Homo sapiens, T47D, 72 h, read-out: IC50.
[5] abbreviates: Homo sapiens, MDA-MB-231, 72 h, read-out: IC50.
Setting [6] is: Homo sapiens, MDA-MB-468, 72 h, read-out: IC50.
[7] abbreviates: Homo sapiens, MCF7, 72 h, read-out: IC50.
[8] abbreviates: Homo sapiens, A549, 72 h, read-out: IC50.

By IC50 is commonly meant the concentration needed to halve the response being measured. As for `CC(=O)O[C@H]1C(=O)[C@@]2(C)[C@H]([C@H](OC(=O)c3ccccc3)[C@]3(O)C[C@H](OC(=O)[C@H](O)[C@@H](NC(=O)c4ccccc4)c4ccccc4)C(C)=C1C3(C)C)[C@]1(OC(C)=O)CO[C@@H]1C[C@@H]2O` [PACLITAXEL], the IC50 was 0.2 µM in the experiment on T47D (setting [4]), 0.1 µM in the experiment on MDA-MB-231 (setting [5]), 0.2 µM in the experiment with MDA-MB-468 (setting [6]) and 0.1 µM in the experiment on MCF7 (setting [7]).

With `O=[N+]([O-])c1ccc(S(=O)(=O)N2N=C3CCCC3C2c2ccc(Cl)cc2)cc1` (centres undefined), the IC50 entry is “Not Active” in the experiment on T47D (t47d); “Not Active” with A549 (a549); 42.7 µM in the experiment with MDA-MB-231 (setting [5]); 43.7 µM in the experiment on MDA-MB-468 (setting [6]); “Not Active” with MCF7 (mcf7).

As for `CC(C)c1ccc(C2NN=C3CCCC32)cc1` (centres undefined), the IC50 with T47D (setting [4]) was 129 µM; in the experiment on A549 (a549), “Not Active”; in the experiment with MDA-MB-231 (setting [5]), 144 µM; with MDA-MB-468 (setting [6]) it was 186 µM; in the experiment on MCF7 (mcf7), “Not Active”.

For `COc1ccc(C2C3CCCC3=NN2S(=O)(=O)c2ccc([N+](=O)[O-])cc2)cc1` (centres undefined), the half-inhibitory concentration (IC50) entry was “Not Active” with T47D (t47d); “Not Active” in the experiment on A549 (a549); “Not Active” in the experiment with MDA-MB-231 (mda-mb-231); “Not Active” in the experiment on MDA-MB-468 (mda-mb-468); 151 µM in the experiment on MCF7 (setting [7]).

For orientation: Kd means the constant that tells how readily two partners part at equilibrium. Lower therefore signals higher affinity. On to `COc1ccc(C2C3CCCC3=NN2S(C)(=O)=O)cc1` (centres undefined), for which, in the experiment filed under Capra hircus [1], the Activity entry is “Dose-dependent effect”. In addition, the IC50 came to 0.8 µM with T47D (setting [4]); 19.1 µM with A549 (setting [8]); 8.7 µM in the experiment with MDA-MB-231 (setting [5]); 1 µM in the experiment on MDA-MB-468 (setting [6]); 15.8 µM in the experiment on MCF7 (setting [7]). Also, in experiment [2], binding was put at a Kd of 85 µM.

Turning to `CS(=O)(=O)N1N=C2CCCC2C1c1ccc(F)cc1` (centres undefined), in the experiment listed under Capra hircus [1], the Activity entry was “Dose-dependent effect”. For the same compound, the concentration for half-maximal inhibition (IC50) result was “Not Active” in the experiment with T47D (t47d); 81.3 µM in the experiment with A549 (setting [8]); 51.3 µM in the experiment on MDA-MB-231 (setting [5]); 70.8 µM with MDA-MB-468 (setting [6]); 75.9 µM in the experiment on MCF7 (setting [7]). The compound also gave a Kd in experiment [2] of 127 µM.

On to `O=S(=O)(c1ccc(Cl)cc1)N1N=C2CCCC2C1c1ccc(F)cc1` (centres undefined), for which the IC50 is 89.1 µM in the experiment on T47D (setting [4]); “Not Active” in the experiment on A549 (a549); 9.3 µM in the experiment with MDA-MB-231 (setting [5]); “Not Active” in the experiment with MDA-MB-468 (mda-mb-468); “Not Active” in the experiment with MCF7 (mcf7).

For `CC(C)c1ccc(C2C3CCCC3=NN2S(=O)(=O)c2ccc(Cl)cc2)cc1` (centres undefined), the IC50 result with T47D (t47d) is “Not Active”; with A549 (a549) it was “Not Active”; with MDA-MB-231 (mda-mb-231), “Not Active”; with MDA-MB-468 (setting [6]) it was 15.5 µM; in the experiment on MCF7 (mcf7), “Not Active”.

As for `CC(C)c1ccc(C2C3CCCC3=NN2S(C)(=O)=O)cc1` (centres undefined), the half-inhibitory concentration (IC50) entry was “Not Active” in the experiment on T47D (t47d); “Not Active” in the experiment on A549 (a549); “Not Active” in the experiment with MDA-MB-231 (mda-mb-231); 120 µM in the experiment on MDA-MB-468 (setting [6]); “Not Active” with MCF7 (mcf7).

With `Fc1ccc(C2NN=C3CCCC32)cc1` (centres undefined), the IC50 in the experiment with T47D (setting [4]) was 37.2 µM; in the experiment with A549 (setting [8]) it was 30.9 µM; with MDA-MB-231 (setting [5]) it was 30.9 µM; with MDA-MB-468 (setting [6]), 14.8 µM; in the experiment on MCF7 (setting [7]), 38 µM.

Take `Cc1ccc(S(=O)(=O)N2N=C3CCCC3C2c2ccc(F)cc2)cc1` (centres undefined): the 50% inhibitory concentration (IC50) in the experiment on T47D (setting [4]) was found to be 3.3 µM; with A549 (setting [8]) it was 5.8 µM; with MDA-MB-231 (setting [5]), 1.1 µM; in the experiment with MDA-MB-468 (setting [6]), 3.8 µM; in the experiment on MCF7 (setting [7]), 50.1 µM. Moreover, the result in the experiment filed under Capra hircus [3] was Active.

As for `COc1ccc(C2NN=C3CCCC32)cc1` (centres undefined), the 50% inhibitory concentration (IC50) entry in the experiment with T47D (t47d) is “Not Active”; with A549 (setting [8]), 44.7 µM; in the experiment on MDA-MB-231 (mda-mb-231), “Not Active”; in the experiment with MDA-MB-468 (setting [6]), 20 µM; in the experiment on MCF7 (setting [7]), 24 µM.

`Cc1ccc(S(=O)(=O)N2N=C3CCCC3C2c2ccc(C(C)C)cc2)cc1` (centres undefined): the IC50 was 40.7 µM with T47D (setting [4]); “Not Active” in the experiment with A549 (a549); 15.5 µM in the experiment on MDA-MB-231 (setting [5]); 7.9 µM in the experiment on MDA-MB-468 (setting [6]); “Not Active” with MCF7 (mcf7).

Consider `Clc1ccc(C2NN=C3CCCC32)cc1` (centres undefined), for which the half-inhibitory concentration (IC50) with T47D (setting [4]) amounted to 29.5 µM; in the experiment with A549 (setting [8]), 47.9 µM; in the experiment on MDA-MB-231 (setting [5]) it was 25.1 µM; in the experiment with MDA-MB-468 (setting [6]), 10.2 µM; in the experiment with MCF7 (setting [7]), 51.3 µM.

As for `COc1ccc(C2C3CCCC3=NN2S(=O)(=O)c2ccc(C)cc2)cc1` (centres undefined), the 50% inhibitory concentration (IC50) result was “Not Active” in the experiment with T47D (t47d); “Not Active” with A549 (a549); “Not Active” with MDA-MB-231 (mda-mb-231); “Not Active” in the experiment with MDA-MB-468 (mda-mb-468); 178 µM with MCF7 (setting [7]).

Regarding `CC(C)c1ccc(C2C3CCCC3=NN2S(=O)(=O)c2ccc([N+](=O)[O-])cc2)cc1` (centres undefined), the half-inhibitory concentration (IC50) entry with T47D (t47d) is “Not Active”; in the experiment on A549 (a549), “Not Active”; in the experiment with MDA-MB-231 (mda-mb-231) it was “Not Active”; in the experiment on MDA-MB-468 (setting [6]), 28.2 µM; in the experiment on MCF7 (mcf7), “Not Active”.
